Experimental data taken from patent US20220233503A1, “METHODS OF TREATING SEPSIS WITH SYNAPTIC VESICLE 2A AND/OR 2B BINDING CHEMICAL ENTITIES” (INSTITUT PASTEUR, priority 2016, published 2022).

Legend:
CLP mice [1] = assay: Novel object location/recognition tests after sepsis; type: in vivo; settings: septic mice, treated or not
Method: (§1) Comportemental tests: Every comportemental tests were started 15 days after sepsis induction. The experimentator was blinded to the experimental group.
Novel Object Recognition Test: Tests comprise three phases: habituation, familiarization and test phase. During the first 20 minutes animals were placed in a transparent arena under a 100 lux light that had three compartments separated with one-holed plexiglass walls. Two objects were used (a plastic power plug and a brass bolt). During the next 10 minutes two similar objects (A,A) were placed in the lateral compartments. We considered that mice were exploring the objects when they were climbing or explore it with their nose. Immediately after mice were replaced in the center of arena and two new objects (A,B) were placed in the compartments. The ratio of time spent exploring objects A and ratio of time exploring object AB were compared.
(§2) Figures J-M. Morris water Maze test (MWM) and Novel Object Location/Recognition tests.

Caspase 3 = Caspase 3 cleavage and apoptotic cell count in brain after sepsis; type: in vivo; settings: septic mice, Western blot cleaved caspase 3 vs procaspase 3, whole brain
Text: A—Western Blot from cleaved caspase 3 from macerated brain parenchyma. B—Mean±SEM of ratios between intensity of cleaved caspase 3 vs. procaspase 3. […] D-G Cell count for late and early stage of apoptosis. WM Whitte matter, DG, Dentate Gyms, CC3 Cleaved Caspase 3.

CLP mice [2] = assay: Elevated plus maze test after sepsis; type: in vivo; settings: levetiracetam vs placebo treated CLP mice
Method: Elevated plus maze test: Mice home cage was placed in the experimental room 45 minutes prior any handling. Mice were placed in cross shaped 40 cm maze consisting in 2 open arms without walls and 2 closed arms with 30 cm opaque walls. Mice were tracked with ethovision XT during 5 minutes trials. The maximum velocity, total distance walked, number of entries in an open arm, and amount of time spent in an opened arm or in a closed arm were recorded. Datas are presented as Mean±SEM.
FIG. 2: Innate anxiety behavior and depressive phenotype was investigated with the elevated plus maze and splash test.

CLP mice [3] = assay: Sepsis score after CLP; type: in vivo, C57Bl/6 mice; settings: evaluated every 12 hours
Method: Analgesia and rehydration of mice were performed with buprenorphine (0.1 mg/Kg, Buprecare, Axience, Pantin, France) every 12 hours until complete recovery. […] Clinical scoring: Sepsis severity was evaluated twice a day until day 4, or normalization of «sepsis score», a previously described score that ranges from […]. This score evaluates markers of local (abdominal spasm) and systemic reaction to sepsis (rectal temperature, fur erection, abnormal breathing), behavioural alterations (feces cleaning, presence of periocular dried eyedrop, incomplete palpebral opening, spontaneous activity in the cage, the escape attempt after tail grabbing) and signs of muscular weakness (grip strength, body tone, difficulty to walk). Each item was scored 0 or 1, with a total score rang from 0 (normal) to 12 (highly severe). For ethical reason, mice with a sepsis score ≥8 and a temperature ≤34.5° C. were euthanized as they were considered to almost certainly die within the 12 hours.
FIG. 1C. Sepsis score was evaluated every 12 hours (general state criteria, temperature, fur erection, respiratory rate, sickness behaviour, spontaneous activity in the home cage, lacrimation, palpebral closure, feces toilet, locomotor criteria, grip strength, difficulties walking, local reaction, abdominal wall contraction, axial body tone). Datas are presented as mean±SEM.

microglial cells = assay: Morphological analysis of microglial cells (Iba-1 staining) after sepsis; type: in vivo, mice
Method: Immunohistochemistry: Mice were perfused through left ventricule with paraformaldehyde 4% and the collected brains with small forceps. Brain were fixed overnight with PFA 4% and then cut in 100 μm sagittal slices with a vibratome VT1200S (Leica, Germany). Ionized calcium binding adaptor type 1 immunohistochemistry. Brain sections were washed with PBS and aspecific binding sites were saturated with a bovine serum albumine 3% in PBS solution for 4 hours. Then primary antibody (Rabbit, Wako, 40 ng/μl) was applied for 24 hours at 4° C. under constant agitation. Cyanine 3 secondary antibody (Donkey anti-Rabbit) and Hoechst 33342 (1/4000) was then applied overnight at 4° C. with constant agitation.
Imaging of samples was realized in a medium throughput spinning disk confocal microscope (CV1000) on 5×5 mozaics reconstructed with an overlap of 50% to avoid signal intensity lowering on the edge of tiles. Stitching was realized using a homemade macro with the Grid/collection plugin for Fiji channel by channel and then manually realligned if necessary. Automated analysis of microglial cell was realized on Iba1 staining. Automatic local contrast thresholding using Phanshalkar algorithm with a radius of 2 μm was performed for microglia channel, and with a radius of 12 μm for nuclei channel. Microglial cells were identified using a fixed empirical threshold for percentage of perinuclear area stained by Iba-1 using thresholded image. Only individual microglial cells obtained after segmentation with a tridimensionnal watershed algorithm were furthered considered for analysis. Morphometric study of microglial cells were performed using mcib3d plugin for FIJI. Concentric envelopes were computed starting 1 μm after nuclear envelope to analyze the number of microglial process crossing this sphere and reproduce a conformational tridimensional analysis on microglial cells.
Individual and summarized data were then analyzed in R statistics. Area under the curve of number of microglial processes. When covariant variables were identified, the most relevant was considered.
FIG. 3 (G, H, I). […]

[4] = test system: peripheral nervous system; settings: septic rats, single dose of 300, 600 or 1200 mg/kg one hour after surgery; cited from earlier work
[5] = cited from earlier work
TNF alpha, IL1 beta = assay: ELISA assay on brain parenchyma after sepsis; type: in vivo, mice; settings: during sepsis
Method: FIG. 3C—An ELISA assay was performed on brain parenchyma to detect lower changes in cytokine concentration.

[6] = test system: pro- and anti-inflammatory cytokine levels in brain parenchyma; assay: Cytokine multiplex in brain parenchyma after sepsis; type: in vivo, mice; settings: 24 hours after sepsis induction
Method: Cytokine multiplex: Brain samples were weighed and unfrosted in 100 μl of extraction buffer (PBS 1×, complete protease inhibitor, sigma-aldrich, triton 0.1%) processed in 2 ml Lysing Matrix A tubes with FastPrep-24 (MP biomedicals, Germany). Tubes were centrifuged at 20000 g at 4° C. and supernatant was collected and protein concentration was determined with light absorbance at 280 nm using a Nanodrop Lite Spectrophotometer (Thermo Scientific). […] Cytokines were measured using a Bio-Plex System and Mouse Cytokine Standard 23-Plex Group 1 kit following manufacturer's recommendations. Raw datas were analyzed by dividing the concentration of cytokine with protein concentration in lyzate and weight of sample measured on precision balance. Then every cytokine concentrations are presented as a ratio compared to the untreated sepsis group.

CLP mice [7] = assay: Morris water maze after sepsis; type: in vivo
Text: as §1
Morris Water Maze was realized as described by Vorhees et al. Nature Protocols 2006. It consisted in a phase of spatial learning and a probe trial. During the first phase the animal learns spatial position of a platform (11 cm diameter) hidden in a swimming pool (120 cm diameter) with opaque water relatively to cues placed on the water tank and in the experimental room. The animal is released in a random quadrant 4 times per day during 7 days. The distance (cm) before reaching the platform, the latency (s) and the proportion of time spent in each quadrant is measured. After each day the learning curve of mice reaching the platform is drawn. If this curve reached a plateau, the probe trial is realized the next day. Probe trial consists in a recall of the spatial reference memory.
as §2

CC[C@@H](C(N)=O)N1CCCC1=O (single isomer, unassigned) [levetiracetam]
time on novel vs familiar object (CLP mice [1]): same amount of time | cleavage of Caspase 3 in the brain (Caspase 3): reduces | innate anxiety (elevated plus maze) (CLP mice [2]): No difference | sepsis score vs placebo (CLP mice [3]): did not differ | principal components of microglial morphology (microglial cells; 4 main components of 107 morphological criteria, septic mice): different | microglial cell morphological changes (microglial cells; 6 hours after sepsis, CeA and B1A): decreased | number of microglial cell processes (microglial cells; 15 days after sepsis): increased dramatically | effects on the peripheral nervous system [4]: broad spectrum of protective and restorative effects | solubility in acetonitrile ([5]; acetonitrile): 5.7 g/100 mL | solubility in chloroform ([5]; chloroform): 65.3 g/100 mL | solubility in ethanol ([5]; ethanol): 16.5 g/100 mL | solubility in methanol ([5]; methanol): 53.6 g/100 mL | solubility in n-hexane ([5]; n-hexane): practically insoluble | solubility in water ([5]; water): 104.0 g/100 mL | TNF alpha expression in brain parenchyma (ELISA) (TNF alpha, IL1 beta): No difference | IL1 beta in brain parenchyma (ELISA) (TNF alpha, IL1 beta; p<0.05): increased | TNF alpha in brain parenchyma (multiplex) ([6]; sepsis group treated): could not be detected | IL4 concentration in brain parenchyma (multiplex) ([6]; vs septic mice receiving saline): increased | Morris water maze learning to locate the platform (AUC of learning curve) (CLP mice [7]; septic mice): did not present an effect | Morris water maze test day time in platform quadrant (CLP mice [7]; test day (probe trial), all groups): same amount of time
